Laboratory results as given in patent US11191749B2, “Pharmaceutical compositions for combination therapy” (GENFIT, priority 2017, dated 2021).

Tested on: TGFβ1-induced hHSC (α-SMA)
Assay: α-SMA ELISA in TGFβ1-induced human primary hepatic stellate cells (single agents and combination matrix, EOB/EOHSA)
Type: cell-based
Conditions: 1 h preincubation, TGFβ1 1 ng/ml, 48 h, FIG. 1
Protocol: After 48 hours of incubation, the expression of α-SMA was measured by ELISA. […] Data are presented as mean (triplicates)±standard deviation (SD).
Combinations were tested in a dose-response matrix format and analyzed according to the excess over Bliss (EOB) additivism model. […] Data are presented as mean of quadruplicates. (B) EOB scores were calculated as described in Materials and Methods. […] Data are presented as mean (quadruplicates)±standard deviation (SD).
Combinations were tested in a dose-response matrix format and analyzed according to the excess over Bliss (EOB) additivism model. […] Data are presented as mean (quadruplicates)±standard deviation (SD).
Then, 2-fold and 4-fold higher and lower concentrations were selected.
The human primary hepatic stellate cells (hHSC) (Innoprot) were cultured under standard conditions, as described above.

`O=C(Nc1ncc([N+](=O)[O-])s1)c1ccccc1O` [TZ, tizoxanide] was tested, and the “antifibrotic activity (α-SMA) as single agent” value was “profile similar to the parent drug”.
